Assays:
Assay in all cases: relative viability (nuclei count vs DMSO), 5 days (fraction); higher = more cells survive
LC-2-ad = tested on: LC-2-ad
Summary of the method: (§1)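 Five library-drug doses in √10 steps were combined with a fixed anchor-drug dose, or a single drug was given alone, by pin tool to lung cancer cell lines in 1536-well plates the day after seeding. Nuclei were stained and counted after 5 days. Relative viability is the nuclei count in treated wells over that in vehicle wells, taken as the median of duplicate plates.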

NCI-H596 = tested on: NCI-H596
Summary of the method: as §1

NCI-H1793 = tested on: NCI-H1793
Summary of the method: as §1

NCI-H2228 = tested on: NCI-H2228
Summary of the method: as §1

SW 1573 = tested on: SW 1573
Summary of the method: as §1

LK-2 = tested on: LK-2
Summary of the method: as §1

NCI-H1650 = tested on: NCI-H1650
Summary of the method: as §1

201T = tested on: 201T
Summary of the method: as §1

NCI-H23 = tested on: NCI-H23
Summary of the method: as §1

PC-14 = tested on: PC-14
Summary of the method: as §1

LU99A = tested on: LU99A
Summary of the method: as §1

NCI-H460 = tested on: NCI-H460
Summary of the method: as §1

NCI-H2347 = tested on: NCI-H2347
Summary of the method: as §1

H3255 = tested on: H3255
Summary of the method: as §1

A-427 = tested on: A-427
Summary of the method: as §1

LCLC-97TM1 = tested on: LCLC-97TM1
Summary of the method: as §1

HCC-44 = tested on: HCC-44
Summary of the method: as §1

NCI-H1563 = tested on: NCI-H1563
Summary of the method: as §1

NCI-H727 = tested on: NCI-H727
Summary of the method: as §1

COR-L23 = tested on: COR-L23
Summary of the method: as §1

Compound: Nc1ccn([C@@H]2O[C@H](CO)[C@@H](O)[C@@H]2O)c(=O)n1 [Cytarabine] + CS(=O)(=O)CCNCc1ccc(-c2ccc3ncnc(Nc4ccc(OCc5cccc(F)c5)c(Cl)c4)c3c2)o1 [Lapatinib] (partner 2 µM)
- relative viability (LC-2-ad; first compound 0.005 µM): 0.878
- relative viability (LC-2-ad; first compound 0.01581 µM): 0.868
- relative viability (LC-2-ad; first compound 0.05 µM): 0.926
- relative viability (LC-2-ad; first compound 0.1581 µM): 0.26
- relative viability (LC-2-ad; first compound 0.5 µM): 0.192
- relative viability (NCI-H596; first compound 0.005 µM): 1.03
- relative viability (NCI-H596; first compound 0.01581 µM): 0.903
- relative viability (NCI-H596; first compound 0.05 µM): 0.785
- relative viability (NCI-H596; first compound 0.1581 µM): 0.746
- relative viability (NCI-H596; first compound 0.5 µM): 0.609
- relative viability (NCI-H1793; first compound 0.005 µM): 0.846
- relative viability (NCI-H1793; first compound 0.01581 µM): 0.478
- relative viability (NCI-H1793; first compound 0.05 µM): 0.656
- relative viability (NCI-H1793; first compound 0.1581 µM): 0.451
- relative viability (NCI-H1793; first compound 0.5 µM): 0.338
- relative viability (NCI-H2228; first compound 0.005 µM): 0.632
- relative viability (NCI-H2228; first compound 0.01581 µM): 0.562
- relative viability (NCI-H2228; first compound 0.05 µM): 0.315
- relative viability (NCI-H2228; first compound 0.1581 µM): 0.183
- relative viability (NCI-H2228; first compound 0.5 µM): 0.136
- relative viability (SW 1573; first compound 0.005 µM): 1.17
- relative viability (SW 1573; first compound 0.01581 µM): 0.879
- relative viability (SW 1573; first compound 0.05 µM): 0.952
- relative viability (SW 1573; first compound 0.1581 µM): 0.606
- relative viability (SW 1573; first compound 0.5 µM): 0.329
- relative viability (LK-2; first compound 0.005 µM): 0.627
- relative viability (LK-2; first compound 0.01581 µM): 0.479
- relative viability (LK-2; first compound 0.05 µM): 0.395
- relative viability (LK-2; first compound 0.1581 µM): 0.248
- relative viability (LK-2; first compound 0.5 µM): 0.283
- relative viability (NCI-H1650; first compound 0.005 µM): 0.807
- relative viability (NCI-H1650; first compound 0.01581 µM): 0.604
- relative viability (NCI-H1650; first compound 0.05 µM): 0.317
- relative viability (NCI-H1650; first compound 0.1581 µM): 0.247
- relative viability (NCI-H1650; first compound 0.5 µM): 0.155
- relative viability (201T; first compound 0.005 µM): 1.08
- relative viability (201T; first compound 0.01581 µM): 0.997
- relative viability (201T; first compound 0.05 µM): 1.04
- relative viability (201T; first compound 0.1581 µM): 0.889
- relative viability (201T; first compound 0.5 µM): 0.919
- relative viability (NCI-H23; first compound 0.005 µM): 0.974
- relative viability (NCI-H23; first compound 0.01581 µM): 0.636
- relative viability (NCI-H23; first compound 0.05 µM): 0.734
- relative viability (NCI-H23; first compound 0.1581 µM): 0.203
- relative viability (NCI-H23; first compound 0.5 µM): 0.165
- relative viability (PC-14; first compound 0.005 µM): 0.282
- relative viability (PC-14; first compound 0.01581 µM): 0.236
- relative viability (PC-14; first compound 0.05 µM): 0.273
- relative viability (PC-14; first compound 0.1581 µM): 0.17
- relative viability (PC-14; first compound 0.5 µM): 0.221
- relative viability (LU99A; first compound 0.005 µM): 0.974
- relative viability (LU99A; first compound 0.01581 µM): 0.968
- relative viability (LU99A; first compound 0.05 µM): 1.02
- relative viability (LU99A; first compound 0.1581 µM): 0.988
- relative viability (LU99A; first compound 0.5 µM): 0.938
- relative viability (NCI-H460; first compound 0.005 µM): 0.333
- relative viability (NCI-H460; first compound 0.01581 µM): 1.1
- relative viability (NCI-H460; first compound 0.05 µM): 0.4
- relative viability (NCI-H460; first compound 0.1581 µM): 0.0338
- relative viability (NCI-H460; first compound 0.5 µM): 0.0305
- relative viability (NCI-H2347; first compound 0.005 µM): 1.01
- relative viability (NCI-H2347; first compound 0.01581 µM): 0.942
- relative viability (NCI-H2347; first compound 0.05 µM): 0.764
- relative viability (NCI-H2347; first compound 0.1581 µM): 0.659
- relative viability (NCI-H2347; first compound 0.5 µM): 0.825
- relative viability (H3255; first compound 0.005 µM): 0.268
- relative viability (H3255; first compound 0.01581 µM): 0.226
- relative viability (H3255; first compound 0.05 µM): 0.158
- relative viability (H3255; first compound 0.1581 µM): 0.197
- relative viability (H3255; first compound 0.5 µM): 0.188
- relative viability (A-427; first compound 0.005 µM): 0.93
- relative viability (A-427; first compound 0.01581 µM): 0.565
- relative viability (A-427; first compound 0.05 µM): 0.274
- relative viability (A-427; first compound 0.1581 µM): 0.184
- relative viability (A-427; first compound 0.5 µM): 0.183
- relative viability (LCLC-97TM1; first compound 0.005 µM): 1.06
- relative viability (LCLC-97TM1; first compound 0.01581 µM): 0.495
- relative viability (LCLC-97TM1; first compound 0.05 µM): 0.163
- relative viability (LCLC-97TM1; first compound 0.1581 µM): 0.161
- relative viability (LCLC-97TM1; first compound 0.5 µM): 0.0949
- relative viability (HCC-44; first compound 0.005 µM): 0.93
- relative viability (HCC-44; first compound 0.01581 µM): 0.935
- relative viability (HCC-44; first compound 0.05 µM): 0.984
- relative viability (HCC-44; first compound 0.1581 µM): 0.532
- relative viability (HCC-44; first compound 0.5 µM): 0.431
- relative viability (NCI-H1563; first compound 0.005 µM): 0.935
- relative viability (NCI-H1563; first compound 0.01581 µM): 0.859
- relative viability (NCI-H1563; first compound 0.05 µM): 0.497
- relative viability (NCI-H1563; first compound 0.1581 µM): 0.926
- relative viability (NCI-H1563; first compound 0.5 µM): 0.708
- relative viability (NCI-H727; first compound 0.005 µM): 0.766
- relative viability (NCI-H727; first compound 0.01581 µM): 0.602
- relative viability (NCI-H727; first compound 0.05 µM): 0.606
- relative viability (NCI-H727; first compound 0.1581 µM): 0.339
- relative viability (NCI-H727; first compound 0.5 µM): 0.28
- relative viability (COR-L23; first compound 0.005 µM): 0.892
- relative viability (COR-L23; first compound 0.01581 µM): 0.668
- relative viability (COR-L23; first compound 0.05 µM): 0.921
- relative viability (COR-L23; first compound 0.1581 µM): 0.235
- relative viability (COR-L23; first compound 0.5 µM): 0.138

— the supplement of paper PMC10307832
